In one data set the test system is male SD rats. Put plainly: Subcutaneous infiltration anesthesia in rats (acupuncture stimulation of back skin). Type of data set: in vivo, rat. The note with it: 0.4 mL subcutaneous. The method, then: The compounds of the examples were dissolved in water for injection to a concentration of 0.2-0.5 g/100 mL (0.2-0.5%), or mixed with commercially-available clinically-common local anesthetic drugs to prepare a mixed solution with a specific proportion, and the 0.75% levobupivacaine was used as the positive control compound. The experimental method was as follows: male SD rats weighing 180-300 g were shaved off back hair 1 day before the experiment, and a circular skin area with a diameter of 4 cm was exposed. 0.4 mL of the drug solution was subcutaneously injected to the exposed circular center on the back using a 1 mL syringe to form a skin mound. After 1 minute, the first measurement was performed. Each of 8 random parts around the center of the injection site was stimulated once by acupuncture of 15 g force using a 26G needle (the stimulation site was no more than 1 cm away from the injection center). […] If there was no such behavior, it was considered that the local anesthetic effect existed. […] Except for the first measurement, the measurement was performed every 2 hours within 12 hours after the administration, and every 6 hours after 12 hours after the administration. 8 rats were used for each drug for the experiment.

Data set [1] concerns left sciatic nerve of rats. Briefly: Sciatic nerve blocking experiment in rats (Von Frey filaments 60 g). In kind it is in vivo, rat. The method, then:
The compounds of the examples were dissolved in water for injection to a concentration of 0.5-2.0 g/100 mL (0.5%-2%), or mixed with commercially-available clinically-common local anesthetic drugs to prepare a mixed solution with a specific proportion, and the 0.75% levobupivacaine was used as the positive control compound. The experimental method was as follows: male SD rats weighing 180-300 g were anesthetized with isoflurane, 0.2 mL of the drug-containing solution was injected near the left sciatic nerve of rats, and 8 rats were used for each drug for the experiment. After the rats woke up, the first measurement was performed, and then the measurement was performed every 2 hours. If there was still an anesthetic effect after six measurements, the measurement was performed every 6 hours until the anesthetic effect disappeared. The method for judging the existence of anesthetic effect was as follows. The skin of the sole and lateral surface of the hindlimb of the rat on the side injected with the drug was stimulated using Von Frey filaments (60 g). […] If there was no such behavior, it was considered that the local anesthetic effect existed.

The subject of the next data set is rats. Briefly: Mortality rate after injection of drugs through tail vein. In kind it is in vivo, rat. The note with it: 0.4 mL through tail vein, 10 rats. The method, then:
0.2% aqueous solution of the compounds of the present invention and 0.75% levobupivacaine solution were injected into the rats through tail vein in 0.4 mL, and the mortality rate was observed. Each drug was injected into 10 rats (half male and half female, weighing 290-310).

The conditions of data set [2]: background, literature; cited from earlier work.

The structures appear in SMILES notation. Structures can show the parent of a compound that is named as a salt.

Regarding `CC[N+](CC)(CCO)CC(=O)Nc1c(C)cc(OCCCCN2CCCCC2C(=O)Nc2c(C)cccc2C)cc1C` (centres unmarked) [Compound 53], the “Duration of local anesthesia” value was in the range of 36 to 48 h in the data set with male SD rats (0.15 + 0.15% tetracaine hydrochloride); 24 to 30 h with male SD rats (0.2%, rat back); 48 to 54 h in the data set on male SD rats (0.5%, rat back); 30 to 36 h in data set [1] (0.5%, 0.2 mL near left sciatic nerve); 42 to 66 h in data set [1] (0.5 + 0.15% tetracaine hydrochloride, 0.2 mL near sciatic nerve); 42 to 54 h in data set [1] (1.0%, 0.2 mL near left sciatic nerve). Also, the “Duration of local anesthesia” value in data set [1] (2.0%, 0.2 mL near left sciatic nerve) was 72 to 84 h. In the data set on rats (0.2% aqueous solution), the Mortality rate % came to 0%.
For the compound `CCCCN1CCCC[C@H]1C(=O)Nc1c(C)cccc1C` [Levobupivacaine hydrochloride, reference compound], the “Duration of local anesthesia” value in the data set on male SD rats (0.75%, rat back, hydrochloride) fell in the range of 4 to 6 h; in the data set on male SD rats (0.75%, rat back, listed as levobupivacaine, hydrochloride), 4 to 6 h; in data set [1] (0.75%, 0.2 mL near left sciatic nerve), 2 to 6 h. In addition, the “Duration of motor block” value in data set [1] (0.75%, compared with sensory block) is listed as “basically the same as that of the sensory block”. For the same compound, the “Block of motor function of the hindlimb” value in data set [1] (0.75%, side injected with the drug) is “significantly blocked the motor function”. Besides, the Mortality rate % is on record as 70% in the data set on rats (0.75% solution, hydrochloride); “death of most animals” with rats (0.75% solution, listed as levobupivaca, hydrochloride); 70% in the data set on rats (0.75% solution, listed as levobupivacaine, hydrochloride).
Regarding `CCN(CC)CC(=O)Nc1c(C)cccc1C` [lidocaine], the “Duration of local anesthesia” value in data set [2] is 2 h.

(Values after patent publication US20230183169A1, “AROMATIC COMPOUND, PREPARATION METHOD THEREFOR AND USE THEREOF IN DRUG” (SICHUAN ACADEMY OF MEDICAL SCIENCES - SICHUAN PROVINCIAL …, priority 2020, published 2023).)
